ChEMBL document CHEMBL1142248, “Structure-activity relationships and pharmacokinetic parameters of quinoline acylsulfonamides as potent and selective antagonists of the EP(4) receptor” (Bioorg Med Chem Lett, 2008)

Organism: Rattus norvegicus
Test: Antiinflammatory activity against adjuvant-induced rat arthritis model
Format: functional

Structure (SMILES)	ED50 [mg/kg]
CS(=O)(=O)c1ccc(C2=C(c3ccccc3)C(=O)OC2)cc1 [ROFECOXIB]	0.74

What follows are molecules tested against T1, Prostaglandin E2 receptor EP4 subtype (Homo sapiens, UniProt P35408) (assay: Binding affinity to human EP4 receptor expressed in HEK293 cells).
Format: cell-based

T1 sequence (P35408 whole entry): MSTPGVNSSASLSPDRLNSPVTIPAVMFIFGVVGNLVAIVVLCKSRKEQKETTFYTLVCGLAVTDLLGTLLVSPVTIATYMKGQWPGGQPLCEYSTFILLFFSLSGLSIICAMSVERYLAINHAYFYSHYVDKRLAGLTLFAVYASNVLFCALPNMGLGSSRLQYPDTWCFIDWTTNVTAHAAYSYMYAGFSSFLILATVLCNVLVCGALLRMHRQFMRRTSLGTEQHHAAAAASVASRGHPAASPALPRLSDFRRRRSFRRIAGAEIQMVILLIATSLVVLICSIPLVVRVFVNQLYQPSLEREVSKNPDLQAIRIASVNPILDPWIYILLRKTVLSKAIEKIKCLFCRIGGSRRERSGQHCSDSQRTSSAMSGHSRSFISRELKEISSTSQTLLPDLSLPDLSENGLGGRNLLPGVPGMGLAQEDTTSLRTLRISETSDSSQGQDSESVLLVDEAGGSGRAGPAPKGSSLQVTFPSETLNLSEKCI

Structure (SMILES)	Ki [nM]
CCOc1c2c(c(OCC)c3ncccc13)CN(c1ccc(CS(=O)(=O)NC(=O)C3(c4ccccc4OC)CC3)cc1C)C2=O	0.55
CCOc1c2c(c(OCC)c3ncccc13)CN(c1ccc(CS(=O)(=O)NC(=O)Cc3ccccc3OC(F)F)cc1C)C2=O	0.32
CCOc1c2c(c(OCC)c3ncccc13)CN(c1ccc(CS(=O)(=O)NC(=O)Cc3ccccn3)cc1C)C2=O	2.4
CCOc1c2c(c(OCC)c3ncccc13)CN(c1ccc(CS(=O)(=O)NC(=O)Cc3ccccc3OC(F)(F)F)cc1C)C2=O	0.21
COc1ccccc1C1(C(=O)NS(=O)(=O)Cc2ccc(N3Cc4c(c(OCC(F)(F)F)c5cccnc5c4OCC(F)(F)F)C3=O)c(C)c2)CC1	0.95
CCOc1c2c(c(OCC)c3ncccc13)CN(c1ccc(CS(=O)(=O)NC(=O)Cc3ccccc3C(F)(F)F)cc1C)C2=O	0.43
COc1ccccc1CC(=O)NS(=O)(=O)Cc1ccc(N2Cc3c(c(OCC(F)(F)F)c4cccnc4c3OCC(F)(F)F)C2=O)c(C)c1	0.38
CCOc1c2c(c(OCC)c3ncccc13)CN(c1ccc(CS(=O)(=O)NC(=O)Cc3c(Cl)cccc3Cl)cc1C)C2=O	0.28
COc1ccccc1CC(=O)NS(=O)(=O)Cc1ccc(N2Cc3c(c(OC(C)C)c4cccnc4c3OC(C)C)C2=O)c(C)c1	0.36
CCOc1c2c(c(OCC)c3ncccc13)CN(c1ccc(CS(=O)(=O)NC(=O)Cc3ccncc3)cc1C)C2=O	9.8
CCOc1c2c(c(OCC)c3ncccc13)CN(c1ccc(CS(=O)(=O)NC(=O)C3(c4c(OC)cccc4OC)CC3)cc1C)C2=O	0.54
CCOc1c2c(c(OCC)c3ncccc13)CN(c1ccc(CS(=O)(=O)NC(=O)Cc3cccnc3)cc1C)C2=O	2.8

Second part, the molecule after the results:

Ki [nM]	Structure (SMILES)
0.27	CCOc1c2c(c(OCC)c3ncccc13)CN(c1ccc(CS(=O)(=O)NC(=O)Cc3ccccc3Cl)cc1C)C2=O
0.31	CCOc1c2c(c(OCC)c3ccccc13)C(=O)N(c1ccc(CS(=O)(=O)NC(=O)Cc3ccccc3)cc1)C2
0.25	CCOc1c2c(c(OCC)c3ccccc13)C(=O)N(c1ccc(CS(=O)(=O)NC(=O)Cc3ccccc3)cc1C)C2
0.43	CCOc1c2c(c(OCC)c3ccccc13)C(=O)N(c1ccc(CS(=O)(=O)NC(=O)Cc3cccc4ccccc34)cc1)C2
4.2	CCOc1c2c(c(OCC)c3ccccc13)C(=O)N(c1ccc(CS(=O)(=O)NC(=O)CCc3ccsc3)cc1)C2
0.27	CCOc1ccccc1CC(=O)NS(=O)(=O)Cc1ccc(N2Cc3c(c(OCC)c4cccnc4c3OCC)C2=O)c(C)c1
3.3	CCOc1c2c(c(OCC)c3ncccc13)C(=O)N(c1ccc(CS(=O)(=O)NC(=O)Cc3ccccc3)cc1C)C2
0.38	CCOc1c2c(c(OCC)c3ccccc13)C(=O)N(c1ccc(CS(=O)(=O)NC(=O)COc3ccccc3)cc1)C2
0.37	CCOc1c2c(c(OCC)c3ccccc13)C(=O)N(c1ccc(CS(=O)(=O)NC(=O)Cc3cc(OC)ccc3OC)cc1)C2
0.43	CCOc1c2c(c(OCC)c3ccccc13)C(=O)N(c1ccc(CS(=O)(=O)NC(=O)Cc3c(C)cc(C)cc3C)cc1)C2
1	CCOc1c2c(c(OCC)c3ccccc13)C(=O)N(c1ccc(CS(=O)(=O)NC(=O)C3CCCc4ccccc43)cc1)C2 (configuration not stated)
0.48	CCOc1c2c(c(OCC)c3ncccc13)CN(c1ccc(CS(=O)(=O)NC(=O)Cc3ccccc3F)cc1C)C2=O
2	CCOc1c2c(c(OCC)c3ccccc13)C(=O)N(c1ccc(CS(=O)(=O)NC(=O)Cn3nccc3C)cc1)C2
0.76	CCOc1c2c(c(OCC)c3ncccc13)CN(c1ccc(CS(=O)(=O)NC(=O)Cc3ccccc3)cc1C)C2=O
2.4	CCOc1c2c(c(OCC)c3ccccc13)C(=O)N(c1ccc(CS(=O)(=O)NC(=O)Cc3cccc(OC)c3)cc1)C2
7.9	CCOc1c2c(c(OCC)c3ccccc13)C(=O)N(c1ccc(CS(=O)(=O)NC(=O)C(c3ccccc3)c3ccccc3)cc1)C2

Each molecule was assayed against T1, Prostaglandin E2 receptor EP4 subtype (assay: Binding affinity to human EP4 receptor expressed in HEK293 cells in presence of 10% human serum).
Format: cell-based

Structure (SMILES)	Ki [nM]
CCOc1c2c(c(OCC)c3ncccc13)CN(c1ccc(CS(=O)(=O)NC(=O)C3(c4ccccc4OC)CC3)cc1C)C2=O	4.2
CCOc1c2c(c(OCC)c3ncccc13)CN(c1ccc(CS(=O)(=O)NC(=O)Cc3ccccc3OC(F)F)cc1C)C2=O	13
CCOc1c2c(c(OCC)c3ncccc13)CN(c1ccc(CS(=O)(=O)NC(=O)Cc3ccccn3)cc1C)C2=O	13
CCOc1c2c(c(OCC)c3ncccc13)CN(c1ccc(CS(=O)(=O)NC(=O)Cc3ccccc3OC(F)(F)F)cc1C)C2=O	56
COc1ccccc1C1(C(=O)NS(=O)(=O)Cc2ccc(N3Cc4c(c(OCC(F)(F)F)c5cccnc5c4OCC(F)(F)F)C3=O)c(C)c2)CC1	12
CCOc1c2c(c(OCC)c3ncccc13)CN(c1ccc(CS(=O)(=O)NC(=O)Cc3ccccc3C(F)(F)F)cc1C)C2=O	350
COc1ccccc1CC(=O)NS(=O)(=O)Cc1ccc(N2Cc3c(c(OCC(F)(F)F)c4cccnc4c3OCC(F)(F)F)C2=O)c(C)c1	17
CCOc1c2c(c(OCC)c3ncccc13)CN(c1ccc(CS(=O)(=O)NC(=O)Cc3c(Cl)cccc3Cl)cc1C)C2=O	4.8
COc1ccccc1CC(=O)NS(=O)(=O)Cc1ccc(N2Cc3c(c(OC(C)C)c4cccnc4c3OC(C)C)C2=O)c(C)c1	26
CCOc1c2c(c(OCC)c3ncccc13)CN(c1ccc(CS(=O)(=O)NC(=O)Cc3ccncc3)cc1C)C2=O	160
CCOc1c2c(c(OCC)c3ncccc13)CN(c1ccc(CS(=O)(=O)NC(=O)C3(c4c(OC)cccc4OC)CC3)cc1C)C2=O	2.3
CCOc1c2c(c(OCC)c3ncccc13)CN(c1ccc(CS(=O)(=O)NC(=O)Cc3cccnc3)cc1C)C2=O	48

Second part, the molecule after the results:

Ki [nM]	Structure (SMILES)
37	CCOc1c2c(c(OCC)c3ncccc13)CN(c1ccc(CS(=O)(=O)NC(=O)Cc3ccccc3Cl)cc1C)C2=O
> 4000	CCOc1c2c(c(OCC)c3ccccc13)C(=O)N(c1ccc(CS(=O)(=O)NC(=O)Cc3ccccc3)cc1)C2
29	CCOc1c2c(c(OCC)c3ccccc13)C(=O)N(c1ccc(CS(=O)(=O)NC(=O)Cc3ccccc3)cc1C)C2
4.8	CCOc1c2c(c(OCC)c3ccccc13)C(=O)N(c1ccc(CS(=O)(=O)NC(=O)Cc3cccc4ccccc34)cc1)C2
> 4000	CCOc1c2c(c(OCC)c3ccccc13)C(=O)N(c1ccc(CS(=O)(=O)NC(=O)CCc3ccsc3)cc1)C2
8.9	CCOc1ccccc1CC(=O)NS(=O)(=O)Cc1ccc(N2Cc3c(c(OCC)c4cccnc4c3OCC)C2=O)c(C)c1
660	CCOc1c2c(c(OCC)c3ncccc13)C(=O)N(c1ccc(CS(=O)(=O)NC(=O)Cc3ccccc3)cc1C)C2
1200	CCOc1c2c(c(OCC)c3ccccc13)C(=O)N(c1ccc(CS(=O)(=O)NC(=O)COc3ccccc3)cc1)C2
38	CCOc1c2c(c(OCC)c3ccccc13)C(=O)N(c1ccc(CS(=O)(=O)NC(=O)Cc3cc(OC)ccc3OC)cc1)C2
380	CCOc1c2c(c(OCC)c3ccccc13)C(=O)N(c1ccc(CS(=O)(=O)NC(=O)Cc3c(C)cc(C)cc3C)cc1)C2
940	CCOc1c2c(c(OCC)c3ccccc13)C(=O)N(c1ccc(CS(=O)(=O)NC(=O)C3CCCc4ccccc43)cc1)C2 (configuration not stated)
34	CCOc1c2c(c(OCC)c3ncccc13)CN(c1ccc(CS(=O)(=O)NC(=O)Cc3ccccc3F)cc1C)C2=O
600	CCOc1c2c(c(OCC)c3ccccc13)C(=O)N(c1ccc(CS(=O)(=O)NC(=O)Cn3nccc3C)cc1)C2
31	CCOc1c2c(c(OCC)c3ncccc13)CN(c1ccc(CS(=O)(=O)NC(=O)Cc3ccccc3)cc1C)C2=O
1600	CCOc1c2c(c(OCC)c3ccccc13)C(=O)N(c1ccc(CS(=O)(=O)NC(=O)Cc3cccc(OC)c3)cc1)C2
> 4000	CCOc1c2c(c(OCC)c3ccccc13)C(=O)N(c1ccc(CS(=O)(=O)NC(=O)C(c3ccccc3)c3ccccc3)cc1)C2
